Test results reported in patent US9504672B2, “Compositions and methods for treating or preventing pneumovirus infection and associated diseases” (MicroDose Therapeutx, Inc., priority 2012, dated 2016).
In brackets after ≈: the same amount, converted by molar mass. Read-outs that look alike come from different tables or passages of the source.

Tests used:
[1] = human, in vivo
Description: Subjects were enrolled in cohorts of 12 subjects. […] The study consisted of 3 visits: Visit 1 (Screening), Visit 2 (Dosing), Visit 3 (Follow up) and subjects remained at the study site for pharmacokinetic (PK) sampling, spirometry, and safety assessments. […] Day 1 was the first day of dosing and Day 10 was the final day of dosing, following which subjects remained at the study site for 24 hours following the last dose for PK sampling and spirometry. Visit 3 was a follow-up visit, 7 to 10 days after the last dose. Cohorts were dosed as follows:
The first doses for twice daily (BID) and three times daily (TID) were administered in the morning, starting at approximately 0700 hours on each day of dosing. BID doses were administered at 12 hour intervals and TID doses were administered at 6 hour intervals each dose day.
Pharmacokinetic endpoints (Cmax, Tmax, AUC, T1/2) and dose proportionality was assessed based on a limited number of plasma samples following the first dose on Day 1 and last dose on Day 10
Pharmacokinetic variables (Cmax, Tmax, AUC, T1/2) were evaluated based on blood samples drawn following first dose (Days 1-2) and last dose (Days 10-11).

[2] = human, in vivo; remark: listed apart in the source
Excerpt: In summary, the MicroDose Inhaler operation comprises the drug powder contained in a protective blister until delivery. The blister is pierced externally and then placed in contact with a piezoelectric vibrator within the MicroDose Inhaler. When the patient inhales, an airflow sensor automatically turns on the piezo which provides energy to deaggregate the particles of powder and aerosolizes them into the inhalation airstream, providing synchronized delivery. The MicroDose Inhaler was triggered by pressure drop and programmed to produce a series of brief aerosol bursts of predetermined duration within the range of 0.1 to 2.0 seconds, preferably 0.1 seconds, early during each inhalation cycle and for 16 consecutive breaths. The studies were conducted as follows:
Study 3: A Double-Blind, Randomized, 3 Period Crossover, Single Ascending Dose Study to Assess the Safety and Tolerability of Inhaled MDT-637 P3 in Subjects with Intermittent or Mild-to-Moderate Persistent Asthma (Asthma Trial)
The primary objective of Study 3 was to assess the safety and tolerability of MDT-637 P3 when inhaled by subjects with Intermittent, or Mild-to-Moderate Persistent, Asthma. A secondary objective of Study 3 was to determine the rate and extent of systemic absorption of MDT-637 and trough nasal wash MDT-637 drug concentrations following dry powder inhalation dosing.
Each subject was dosed on 3 separate days during the study. Each subject received an initial dose of placebo (Period 1), followed by random allocation at Period 2 to a single dose of nasally inhaled MDT-637 P3 or double blind placebo. After an observation and furlough period, subjects returned for Period 3 to receive three doses of study drug (MDT-637 P3 or placebo) over a single day as listed below. The study consisted of 5 visits: Visit 1 (Screening), Visits 2, 3 and 4 (Dosing), and Visit 5 (Follow up); subjects were furloughed from the clinic for 6 up to 14 days between Visits 3 and 4 and 7-8 days between Visit 4 and 5. Subjects who met all of the inclusion criteria and none of the exclusion criteria (Table 19, FIG. 29) at Visit 1 were eligible to return for Visit 2 within 42 days of screening. Subjects were admitted to the study center twice, once for Visit 2 and again for Visit 4. Visit 5, was a safety follow up (outpatient) visit.
The doses of MDT-637 P3 were determined based on previous clinical experience in Study 1. Both placebo and active were administered as a dry powder for nasal inhalation via a face mask using a MicroDose Inhaler device. At Visit 2, all 10 patients were dosed with placebo Once Daily. At Visit 3, subjects were randomly allocated so that 8 subjects were dosed with MDT-637 P3 Once Daily 66 mcg and 2 subjects received double blind placebo. At Visit 4, subjects were again randomly allocated so that 8 subjects were dosed with MDT-637 TID 132 mcg and 2 subjects received double blind placebo.
Pharmacokinetic variables (Cmax, Tmax, AUC, T1/2) were evaluated based on blood samples drawn at Visit 4.

[3] = human, in vivo; remark: listed apart in the source
Description: The study consisted of 3 visits: Visit 1 (Screening), Visit 2 (Dosing) and Visit 3 (Follow up); subjects furloughed from the clinic between Visits 2 and 3.
Both active and matched placebo were administered via face mask inhalation from a proprietary delivery system (MicroDose inhaler).
Single doses were administered in the morning. TID doses will be administered at 6 hour intervals, with the 1st of the 3 doses administered in the morning.
Pharmacokinetic variables (Cmax, Tmax, AUC, T1/2) were evaluated based on blood samples drawn at Visit 2.

RSV = details: background statement, cited from earlier work
[4] = 40° C./75% RH, 4 weeks
[5] = Description: The data are shown for: (a) non-hydrogenated DPPC (Sigma-Aldrich, USA) and (b) hydrogenated DPPC (Lipoid LLC, USA) surfactants at 0.02% w/v concentration. Each data point represents a triplicate sample obtained at temperature 37° C.
Time-dependent solubility study was carried out in simulated lung fluid (SLF) containing the surfactant dipalmitoylphosphatidylcholine (DPPC). The DPPC is a major surfactant present in the human lung.
Simulated lung fluid was prepared according to a method described by Moss et al. (Health Physics 1979, v36, 447-448).
A 0.1% DPPC in water solution was prepared according to a procedure published by Marques et al. (Dissolution Technologies, August 2011). The SLF solution modified with 0.02% DPPC was prepared by diluting the 0.1% DPPC solution with SLF. Refer to NB1181P59-60 for the details on the preparation procedure of SLF and SLF modified with 0.02% DPPC. Two types of DPPC were used in the study. The hydrogenated DPPC was supplied by Lipoid LLC (USA), while the non-hydrogenated DPPC was supplied by Sigma-Aldrich (catalogue # P0763-1G). […] In order to segregate the solid drug substance from the cloudy solution, a dialysis tube (Sigma-Aldrich catalogue # D9277-100FT) was used. A saturated solution of the drug substance in SLF modified with 0.02% DPPC was prepared and carefully transferred into the dialysis tube (˜10 mL in volume). […]

[6] = Bulk powder density and flow indices (volumetric); format: physicochemical
physchem [7] = details: 25 °C, organic solvent or mixture, thermodynamic from solid
[8] = remark: listed apart in the source
Excerpt: Four lots of MDT-637 API were micronized using a 2-inch spiral jet mill.

[9] = Critical water activity by DVS sorption/desorption isotherms; format: physicochemical
Excerpt: The characteristic gravimetric loss of water is between 1-4.5% w/w.
The characteristic gravimetric loss of water for P-3 dihydrate is between 5.5-8.5% w/w. The profound difference of the DVS curves between the P-2 and P-3 forms can be utilized as a secondary technique for quantitative phase analysis of these forms.

[10] = Particle size of micronized material (Sympatec HELOS & RODOS); format: physicochemical
[11] = Slurry of equal mixture of six phases in 75/25 acetone-water (PXRD); format: physicochemical; details: 25° C., 12 days
Description: An equal powder mixture of six known phases (P-2, P-3, P-4, P-6, P-7 and P-8), 50 mg each were stirred in 75/25 acetone-water solvent (50 mL) at 25° C. over 12 days.

[12] = Thermodynamic relationship (hierarchy) of P-2 and P-3 crystal forms; format: physicochemical
Excerpt: FIG. 17 illustrates the thermodynamic relationship (hierarchy) of the P-2 and P-3 families of crystal forms.

[13] = Specific surface area (BET); format: physicochemical
physchem [14] = test: physchem
Description: Equilibrium solubility of different API forms in aqueous ethanol: This solubility was determined for P-2 and P-3 crystal forms using slurry equilibration and solution concentration measurement with HPLC.

[15] = Competitive slurry stability study between P-2 and P-3 (PXRD quantitative phase analysis); format: physicochemical; details: 50/50 acetonitrile/water, 25° C.
[16] = for Total Imp/Deg: listed as P224-135-2; for number of impurity peaks: listed as P-2
Description: Forced degradation experiments consisted of placing solid samples of P-2 hydrate and P-3 dihydrate materials in sealed glass bottles at 120° C. for 7 days.

physchem [17] = details: 37 °C, water, thermodynamic from solid

Q: Which results are given for `Cc1nnnn1/N=C/c1ccc(O)c(C(c2ccc(O)cc2)c2cc(/C=N/n3nnnc3C)ccc2O)c1` [MDT-637, phenol, 2,2′-[(4-hydroxyphenyl)methylene]bis[4-[[(5-methyl-1H-tetrazol-1-yl)imino]methyl]]]?
A: changes in pulmonary function / pulmonary AEs (serial spirometry) [1]: no significant changes were observed in pulmonary function or reports of pulmonary adverse events; clinically significant changes in pulmonary function / pulmonary AEs [2]: no clinically significant changes in pulmonary function or reports of pulmonary adverse events; clinically significant changes in labs, vital signs, ECGs, physical exams [3]: no clinically significant changes in pulmonary function, ECG, laboratory values vitals or physical examination; potency relative to ribavirin (RSV): 40,000 times; reduction of RSV viral count (RSV; pre- and post-infection): effective in reducing RSV viral count both pre- and post-infection

Q: For `Cc1nnnn1/N=C/c1ccc(O)c(C(c2ccc(O)cc2)c2cc(/C=N/n3nnnc3C)ccc2O)c1` [P-2 hydrate, phenol, 2,2′-[(4-hydroxyphenyl)methylene]bis[4-[[(5-methyl-1H-tetrazol-1-yl)imino]methyl]]], which Assay ([4]; open dish, listed as P-2) is on record?
A: Its Assay is 98.8%.

Q: And the “Rel Subs” value ([4]; open dish, listed as P-2)?
A: The value was 0.68%.

Q: What about the Water ([4]; open dish, listed as P-2) of the same compound?
A: The Water was 3.5%.

Q: And the “change of form / solid-state stability (DSC and PXRD)” value ([4]; open wide glass bottles)?
A: Its value is “no change of form”.

Q: What about the chemical stability ([4]; open wide glass bottles) of the same compound?
A: Its chemical stability is “Acceptable chemical stability”.

Q: What about the “factor by which solubility is lower than that of P-3 dihydrate” value [5] of the same compound?
A: Its value is 5 to 6.

Q: What about the Carr index [6] of the same compound?
A: Its Carr index is 16.7%.

Q: What about the Hausner ratio [6] of the same compound?
A: Its Hausner ratio is 1.20.

Q: What about the “Poured bulk powder density” value [6] of the same compound?
A: The value was 0.16 g/mL.

Q: And the “Tapped bulk powder density” value [6]?
A: The value was 0.19 g/mL.

Q: And the solubility (physchem [7])?
A: Its solubility is 190 µg/mL.

Q: What about the “effect of micronization on crystallinity, phase purity, chemical degradation” value [8] of the same compound?
A: The value was “did not affect the crystallinity, phase purity”.

Q: What about the “critical water activity for transition between P-2 hydrate and anhydrous forms” value ([9]; 1% RH equilibration steps) of the same compound?
A: The value was 30-40 % RH.

Q: What about the “Characteristic relative humidity of dehydration (20° C.)” value ([9]; 20° C.) of the same compound?
A: Its value is 30-40%.

Q: And the “Characteristic medium volume particle size (micronized)” value [10]?
A: The value was 1.1 μm.

Q: And the “form conversion / stability in six-phase slurry” value (“form conversion / stability” below) [11]?
A: The value was “most thermodynamically stable form”.

Q: What about the thermodynamic stability ([12]; ambient conditions (15-37° C., 40-100% RH)) of the same compound?
A: The thermodynamic stability was “most stable crystal form”.

Q: What about the Specific surface area [13] of the same compound?
A: The Specific surface area was 22.6 m^2/g.

Q: What about the equilibrium solubility (physchem [14]) of the same compound?
A: The equilibrium solubility was 416.5 µg/mL.

Q: And the “composition of slurry for P-2 hydrate” value ([15]; 4 days (50% at day 0))?
A: The value was 77%.

Q: And the “composition of slurry for P-2 hydrate” value ([15]; 10 days (50% at day 0))?
A: Its value is 85%.

Q: What about the “Grand Total” value ([16]; 120C/7D) of the same compound?
A: The value was 99.8 Area %.

Q: And the “Total Imp/Deg” value ([16]; 120C/7D)?
A: The value was 0.76 Area %.

Q: What about the “Impurity/Degradation Product A” value ([16]; 7 days) of the same compound?
A: Its value is 0.07 Area %.

Q: What about the “Impurity/Degradation Product H” value ([16]; 7 days) of the same compound?
A: Its value is 0.40 Area %.

Q: And the “Impurity/Degradation Product I” value ([16]; 7 days)?
A: The value was 0.07 Area %.

Q: What about the “Impurity/Degradation Product K” value ([16]; 7 days) of the same compound?
A: Its value is 0.16 Area %.

Q: What about the “Impurity/Degradation Product P” value ([16]; 7 days) of the same compound?
A: Its value is 0.06 Area %.

Q: What about the “Grand Total” value ([16]; CTRL) of the same compound?
A: The value was 99.9 Area %.

Q: And the “Total Imp/Deg” value ([16]; CTRL)?
A: The value was 0.67 Area %.

Q: What about the “number of impurity peaks” value ([16]; control) of the same compound?
A: Its value is 4 peaks.

Q: What about the “number of impurity peaks” value ([16]; stressed sample, 120° C. for 7 days) of the same compound?
A: Its value is 5 peaks.

Q: What about the solubility (physchem [17]) of the same compound?
A: The solubility was < 6 nM.

Q: Which thermodynamic stability ([12]; sufficient activity of ethanol, preferably above 0.3) does the source give for `Cc1nnnn1/N=C/c1ccc(O)c(C(c2ccc(O)cc2)c2cc(/C=N/n3nnnc3C)ccc2O)c1` [P-3 ethanolate, phenol, 2,2′-[(4-hydroxyphenyl)methylene]bis[4-[[(5-methyl-1H-tetrazol-1-yl)imino]methyl]]] here?
A: The thermodynamic stability was “most stable crystal form”.

Q: And the solubility thermodynamic (physchem [14]; organic solvent or mixture, thermodynamic from solid, equilibrium solubility)?
A: The solubility thermodynamic was 240 µg/mL (≈ 470 µM).

Q: Which “form conversion / stability” value [11] does the source give for `Cc1nnnn1/N=C/c1ccc(O)c(C(c2ccc(O)cc2)c2cc(/C=N/n3nnnc3C)ccc2O)c1` [P-4, phenol, 2,2′-[(4-hydroxyphenyl)methylene]bis[4-[[(5-methyl-1H-tetrazol-1-yl)imino]methyl]]] here?
A: The value was “convert to P-2 hydrate”.

Q: For `Cc1nnnn1/N=C/c1ccc(O)c(C(c2ccc(O)cc2)c2cc(/C=N/n3nnnc3C)ccc2O)c1` [P-6, phenol, 2,2′-[(4-hydroxyphenyl)methylene]bis[4-[[(5-methyl-1H-tetrazol-1-yl)imino]methyl]]], which “form conversion / stability” value [11] is on record?
A: Its value is “convert to P-2 hydrate”.

Q: Which “form conversion / stability” value [11] does the source give for `Cc1nnnn1/N=C/c1ccc(O)c(C(c2ccc(O)cc2)c2cc(/C=N/n3nnnc3C)ccc2O)c1` [P-7, phenol, 2,2′-[(4-hydroxyphenyl)methylene]bis[4-[[(5-methyl-1H-tetrazol-1-yl)imino]methyl]]] here?
A: Its value is “convert to P-2 hydrate”.

Q: Which “form conversion / stability” value [11] does the source give for `Cc1nnnn1/N=C/c1ccc(O)c(C(c2ccc(O)cc2)c2cc(/C=N/n3nnnc3C)ccc2O)c1` [P-8, phenol, 2,2′-[(4-hydroxyphenyl)methylene]bis[4-[[(5-methyl-1H-tetrazol-1-yl)imino]methyl]]] here?
A: The value was “convert to P-2 hydrate”.
